Source: patent US7741354B2, “Inhibitors of glutaminyl cyclase” (Probiodrug AG, priority 2006, dated 2010)

molecular target: hQC (Homo sapiens, UniProt Q16769); experiment: Fluorometric (fluorescent) assay of hQC inhibition, IC50; type: biochemical; conditions: hQC inhibition; read-out: IC50
Method in brief: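 Two coupled fluorometric formats at 30° C, pH 8.0 Tris/HCl with EDTA: H-Gln-βNA at 0.2 mM read at 320/410 nm, or H-Gln-AMC at varied levels read at 380/460 nm, each started by adding QC.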

Chain of hQC (Q16769 29-361): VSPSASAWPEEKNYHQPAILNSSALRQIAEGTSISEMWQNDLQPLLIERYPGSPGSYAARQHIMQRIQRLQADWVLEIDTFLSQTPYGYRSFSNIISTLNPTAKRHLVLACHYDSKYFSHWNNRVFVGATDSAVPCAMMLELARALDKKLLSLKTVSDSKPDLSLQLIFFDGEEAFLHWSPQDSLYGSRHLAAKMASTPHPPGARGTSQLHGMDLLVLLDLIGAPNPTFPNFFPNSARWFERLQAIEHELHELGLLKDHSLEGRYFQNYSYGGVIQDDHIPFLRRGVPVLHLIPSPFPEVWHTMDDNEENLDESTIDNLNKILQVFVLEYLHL

| SMILES | IC50 [µM] |
| --- | --- |
| CC1(C)OCC(Cn2nnnc2C(Nc2ccc3[nH]cnc3c2)c2ccc(Cl)c([N+](=O)[O-])c2)O1 (stereo not shown) [compound 171, (1H-Benzoimidazol-5-yl)-{(4-chloro-3-nitro-phenyl)-[1-(2,2-dimethyl-[1,3]dioxolan-4-ylmethyl)-1H-tetrazol-5-yl]-methyl}-amine] | 8.5 |
| CC(Cc1ccc2c(c1)OCO2)C(Nc1ccc2[nH]cnc2c1)c1nnnn1CC(=O)OC(C)(C)C (stereo not shown) [compound 149, {5-[3-Benzo[1,3]dioxol-5-yl-1-(1H-benzoimidazol-5-ylamino)-2-methyl-propyl]-tetrazol-1-yl}-acetic acid tert-butyl ester] | 4.9 |
| Cc1ccc(C(Nc2ccc3[nH]cnc3c2)c2nnnn2CCCN2CCCC2=O)cc1C (stereo not shown) [compound 164, 1-(3-{5-[(1H-Benzoimidazol-5-ylamino)-(3,4-dimethyl-phenyl)-methyl]-tetrazol-1-yl}-propyl)-pyrrolidin-2-one] | 4.9 |
| Brc1cc(Br)cc(C(Nc2ccc3[nH]cnc3c2)c2nnnn2C(c2ccccc2)c2ccccc2)c1 (stereo not shown) [compound 186, [(1-Benzhydryl-1H-tetrazol-5-yl)-(3,5-dibromo-phenyl)-methyl]-(1H-benzoimidazol-5-yl)-amine] | 5.8 |
| CCCOc1cccc(C(Nc2ccc3[nH]cnc3c2)c2nnnn2CC2CCCO2)c1 (stereo not shown) [compound 141, (1H-Benzoimidazol-5-yl)-{(3-propoxy-phenyl)-[1-(tetrahydro-furan-2-ylmethyl)-1H-tetrazol-5-yl]-methyl}-amine] | 4 |
| OCc1ccc(C(Nc2ccc3[nH]cnc3c2)c2nnnn2Cc2ccc(Cl)cc2)o1 (stereo not shown) [compound 121, (5-{(1H-Benzoimidazol-5-ylamino)-[1-(4-chloro-benzyl)-1H-tetrazol-5-yl]-methyl}-furan-2-yl)-methanol] | 4.9 |
| Brc1cc(Br)cc(C(Nc2ccc3[nH]cnc3c2)c2nnnn2CC2CCCO2)c1 (stereo not shown) [compound 170, (1H-Benzoimidazol-5-yl)-{(3,5-dibromo-phenyl)-[1-(tetrahydro-furan-2-ylmethyl)-1H-tetrazol-5-yl]-methyl}-amine] | 4.9 |
| CCOC(=O)C1CCCCC1n1nnnc1C(Nc1ccc2[nH]cnc2c1)c1cccc(C(=O)OC)c1 (stereo not shown) [compound 195, 3-{(1H-Benzoimidazol-5-ylamino)-[1-(2-ethoxycarbonyl-cyclohexyl)-1H-tetrazol-5-yl]-methyl}-benzoic acid methyl ester] | 5.8 |
| CCc1ccc(C(Nc2ccc3[nH]cnc3c2)c2nnnn2CC2CCCO2)s1 (stereo not shown) [compound 129, (1H-Benzoimidazol-5-yl)-{(5-ethyl-thiophen-2-yl)-[1-(tetrahydro-furan-2-ylmethyl)-1H-tetrazol-5-yl]-methyl}-amine] | 8.5 |
| CCOC(=O)C1CCCCC1n1nnnc1C(Nc1ccc2[nH]cnc2c1)c1cccc(OC)c1 (stereo not shown) [compound 192] | 8.5 |
| O=C(Cn1nnnc1C(Nc1ccc2[nH]cnc2c1)c1ccc(Br)cc1)NCCc1c[nH]c2ccccc12 (stereo not shown) [compound 200, 2-{5-[(1H-Benzoimidazol-5-ylamino)-(4-bromo-phenyl)-methyl]-tetrazol-1-yl}-N-[2-(1H-indol-3-yl)-ethyl]-acetamide] | 2.2 |
| CCOC(=O)C1CCCCC1n1nnnc1C(Nc1ccc2[nH]cnc2c1)c1ccc(C)c(C)c1 (stereo not shown) [compound 155] | 4.9 |
| CCOC(=O)C1CCCCC1n1nnnc1C(Nc1ccc2[nH]cnc2c1)c1c[nH]c2cc(C)ccc12 (stereo not shown) [compound 196] | 8.5 |
| C1=COC(C(Nc2ccc3nc[nH]c3c2)c2nnnn2CCc2cccs2)CC1 (stereo not shown) [compound 182, (1H-Benzoimidazol-5-yl)-{(3,4-dihydro-2H-pyran-2-yl)-[1-(2-thiophen-2-yl-ethyl)-1H-tetrazol-5-yl]-methyl}-amine] | 5.8 |
| COc1ccc(C(Nc2ccc3[nH]cnc3c2)c2nnnn2Cc2cccnc2)cc1Br (stereo not shown) [compound 142, (1H-Benzoimidazol-5-yl)-[(3-bromo-4-methoxy-phenyl)-(1-pyridin-3-ylmethyl-1H-tetrazol-5-yl)-methyl]-amine] | 0.4 |
| O=C(Cn1nnnc1C(Nc1ccc2[nH]cnc2c1)c1cccs1)N1CCc2ccccc2C1 (stereo not shown) [compound 120, 2-{5-[(1H-Benzoimidazol-5-ylamino)-thiophen-2-yl-methyl]-tetrazol-1-yl}-1-(3,4-dihydro-1H-isoquinolin-2-yl)-ethanone] | 8.5 |
| COc1ccc(C(Nc2ccc3[nH]cnc3c2)c2nnnn2CC(=O)N2CCc3ccccc3C2)cc1 (stereo not shown) [compound 209, 2-{5-[(1H-Benzoimidazol-5-ylamino)-(4-methoxy-phenyl)-methyl]-tetrazol-1-yl}-1-(3,4-dihydro-1H-isoquinolin-2-yl)-ethanone] | 4 |
| C/C=C/C=C/C(Nc1ccc2[nH]cnc2c1)c1nnnn1Cc1cccnc1 (stereo not shown) [compound 173, (1H-Benzoimidazol-5-yl)-[(2E,4E)-1-(1-pyridin-3-ylmethyl-1H-tetrazol-5-yl)-hexa-2,4-dienyl]-amine] | 8.5 |
| Cc1cc(C)cc(C(Nc2ccc3[nH]cnc3c2)c2nnnn2Cc2ccccc2)c1 (stereo not shown) [compound 124, (1H-Benzoimidazol-5-yl)-[(1-benzyl-1H-tetrazol-5-yl)-(3,5-dimethyl-phenyl)-methyl]-amine] | 5.8 |

same assay, conditions: purified compound from preparative synthesis; fluorescent assay; read-out: IC50 hQC

| SMILES | IC50 [µM] |
| --- | --- |
| Clc1ccc(Cn2nnnc2C(NCCCn2ccnc2)c2ccc3[nH]ccc3c2)cc1 (stereo not shown) [Compound 6, [[1-(4-Chloro-benzyl)-1H-tetrazol-5-yl]-(1H-indol-5-yl)-methyl]-(3-imidazol-1-yl-propyl)-amine] | 0.45 |

same assay, conditions: read-out: IC50

| SMILES | IC50 [µM] |
| --- | --- |
| COC(=O)Cn1nnnc1C(NCCCn1ccnc1)c1ccc(OC)c(O)c1 (stereo not shown) [compound 58, {5-[(3-Hydroxy-4-methoxy-phenyl)-(3-imidazol-1-yl-propylamino)-methyl]-tetrazol-1-yl}-acetic methyl ester] | 4 |
| COc1cc(C)c(C(Nc2ccc3[nH]cnc3c2)c2nnnn2C(C)(C)C)cc1C (stereo not shown) [compound 99] | 8.5 |
| CC(C)(C)OC(=O)Cn1nnnc1C(Nc1ccc2[nH]cnc2c1)c1ccc(Cl)c(F)c1 (stereo not shown) [compound 91, {5-[(1H-Benzoimidazol-5-ylamino)-(4-chloro-3-fluoro-phenyl)-methyl]-tetrazol-11-yl}-acetic acid tert-butyl ester] | 4 |
| COc1ccc(C(Nc2ccc3[nH]cnc3c2)c2nnnn2CC2CCCO2)cc1 (stereo not shown) [compound 88, (1H-Benzoimidazol-5-yl)-{(4-methoxy-phenyl)-[1-(tetrahydro-furan-2-ylmethyl)-1H-tetrazol-5-yl]-methyl}-amine] | 4.9 |
| COc1cccc(C(Nc2ccc3[nH]cnc3c2)c2nnnn2CC2CCCO2)c1 (stereo not shown) [compound 89, (1H-Benzoimidazol-5-yl)-{(3-methoxy-phenyl)-[1-(tetrahydro-furan-2-ylmethyl)-1H-tetrazol-5-yl]-methyl}-amine] | 7.6 |
| COCCn1nnnc1C(NCCCn1ccnc1)c1cc(C)c(C)cc1C (stereo not shown) [compound 43, (3-Imidazol-1-yl-propyl)-[[1-(2-methoxy-ethyl)-1H-tetrazol-5-yl]-(2,4,5-trimethyl-phenyl)-methyl]-amine] | 7.6 |
| C1=COC(C(Nc2ccc3[nH]cnc3c2)c2nnnn2C2CCCCC2)CC1 (stereo not shown) [compound 114] | 6.7 |
| CC(C)(C)OC(=O)Cn1nnnc1C(Nc1ccc2[nH]cnc2c1)c1ccc(Br)cc1 (stereo not shown) [compound 87, {5-[(1H-Benzoimidazol-5-ylamino)-(4-bromo-phenyl)-methyl]-tetrazol-1-yl}-acetic acid tert-butyl ester] | 1.3 |
| COC(=O)c1cccc(C(Nc2ccc3[nH]cnc3c2)c2nnnn2Cc2ccc(Cl)cc2)c1 (stereo not shown) [compound 85, 3-{(1H-Benzoimidazol-5-ylamino)-[1-(4-chloro-benzyl)-1H-tetrazol-5-yl]-methyl}-benzoic acid methyl ester] | 1.3 |
| COCCCn1nnnc1C(NCCCn1ccnc1)c1ccc2ccccc2n1 (stereo not shown) [compound 36, (3-Imidazol-1-yl-propyl)-{[1-(3-methoxy-propyl)-1H-tetrazol-5-yl]-quinolin-2-yl-methyl}-amine] | 3.1 |
| c1ccc2ncc(C(Nc3ccc4[nH]cnc4c3)c3nnnn3CC3CCCO3)cc2c1 (stereo not shown) [compound 102, (1H-Benzoimidazol-5-yl)-{quinolin-3-yl-[1-(tetrahydro-furan-2-ylmethyl)-1H-tetrazol-5-yl]-methyl}-amine] | 2.2 |
| CC(C)(C)n1nnnc1C(NCCCn1ccnc1)[C@@H]1CCC=CO1 (stereo in doubt) [compound 61, [(S)-(1-tert-Butyl-1H-tetrazol-5-yl)-3,4-dihydro-2H-pyran-2-yl-methyl]-(3-imidazol-1-yl-propyl)-amine] | 6.7 |
| Clc1ccccc1Cn1nnnc1C(Nc1ccc2[nH]cnc2c1)c1cc2ccccc2o1 (stereo not shown) [compound 90, {Benzofuran-2-yl-[1-(2-chloro-benzyl)-1H-tetrazol-5-yl]-methyl}-(1H-benzoimidazol-5-yl)-amine] | 22.2 |
| c1ccc2oc(C(Nc3ccc4[nH]cnc4c3)c3nnnn3C3CCCCC3)cc2c1 (stereo not shown) [compound 79, [Benzofuran-2-yl-(1-cyclohexyl-1H-tetrazol-5-yl)-methyl]-(1H-benzoimidazol-5-yl)-amine] | 3.1 |
| Clc1ccc(Cn2nnnc2C(NCCCn2ccnc2)c2ccc(Cl)c(Cl)c2)cc1 (stereo not shown) [compound 1, [[1-(4-Chloro-benzyl)-1H-tetrazol-5-yl]-(3,4-dichloro-phenyl)-methyl]-(3-imidazol-1-yl-propyl)-amine] | 2.2 |
| c1nc2cc(NC(c3ccc4nsnc4c3)c3nnnn3CC3CCCO3)ccc2[nH]1 (stereo not shown) [compound 105] | 4.9 |
| Clc1ccc(C(NCCCn2ccnc2)c2nnnn2C[C@@H]2CCCO2)cc1Cl (stereo partly shown) [compound 10] | 4 |
| COC(=O)Cn1nnnc1C(NCCCn1ccnc1)C1CC1 (stereo not shown) [compound 57, {5-[Cyclopropyl-(3-imidazol-1-yl-propylamino)-methyl]-tetrazol-1-yl}-acetic methyl ester] | 0.4 |
| Clc1ccc(Cn2nnnc2C(NCCCn2ccnc2)c2ccc3[nH]ccc3c2)cc1 (stereo not shown) [Compound 6, [[1-(4-Chloro-benzyl)-1H-tetrazol-5-yl]-(1H-indol-5-yl)-methyl]-(3-imidazol-1-yl-propyl)-amine] | 0.4 |
| C=CCn1nnnc1C(NCCCn1ccnc1)c1ccc2cccc(O)c2n1 (stereo not shown) [compound 45, 2-[(1-Allyl-1H-tetrazol-5-yl)-(3-imidazol-1-yl-propylamino)-methyl]-quinolin-8-ol] | 4 |
